Assay [1] concerns rat aortic smooth muscle cells (myocytes). Briefly: Myocytes growth inhibition measured by cell count (rat). The assay is classed as cell-based. The note with it: 72 h, cell count after 72 hours with 10% fetal calf serum, read-out: IC50 (concentration required to inhibit cell growth by 50%).
The test system of assay [2] is Human vascular myocytes (A 617 from human femoral artery). Briefly: Myocytes growth inhibition measured by cell count (human). The assay is classed as cell-based. To be noted: cell count after 72 hours with 10% fetal calf serum, read-out: IC50 (concentration required to inhibit cell growth by 50%). As to the method:
Migration of myocytes was investigated for the present invention using rat aortic smooth muscle cells in the presence of fibrinogen as chemotactic factor, whereas for studies on their proliferation rat and human cells were used. Cell count and [^3H]-thymidine incorporation were used to evaluate myocytes growth. The methodology was as follows:
Myocytes were cultured from the intima-medial layer of the aortas of male Sprague-Dawley rats (200-250 g). Cells were grown in monolayers at 37°C in a humidified atmosphere of 5% CO2 in Eagle's minimum essential medium supplemented with 10% (v/v) fetal calf serum, 100 U/ml penicillin, 0.1 mg/ml streptomycin, 20 mM tricine buffer and 1% (v/v) non-essential amino acid solution. The medium was changed every third day. Cells were used between the 4th and 10th passage. Cell viability was timely assessed by tripan blue exclusion. Myocytes were identified for growth behaviour, morphology and using monoclonal antibody specific for a-actin, the actin isoform typical of myocytes. Human vascular myocytes (A 617 from human femoral artery) were grown in the same culture conditions. […] Cell proliferation was evaluated by cell count after trypsinization of the monolayers using a Coulter Counter model ZM. Cell viability was assessed by tripan blue exclusion, and found to be higher than 95% at the drug concentrations used.

Assay [3] relates to macrophages loaded with cholesterol ester. Kind of assay: Cholesterol esterification in macrophages loaded with cholesterol ester. Type of assay: cell-based, mouse. The note with it: Figure 4; for relative potency on cholesterol esterification: cholesterol ester loaded macrophages. As for the experimental part:
Cholesterol esterification induced by AcLDL in mouse peritoneal macrophages was investigated as follows. Mouse peritoneal macrophages were obtained by peritoneal lavage from mice (Balb/c Charles River, Calco, Italy) three days after intraperitoneal injection of thioglycolate. Cells (2-3x10^6) were plated in 35 mm wells with Dulbecco's minimum essential medium containing 10% fetal bovine serum. After 3 hours, the dishes were washed to eliminate unattached cells and maintained in Dulbecco's minimum essential medium plus 10% fetal bovine serum for 24 hours before use. After cell plating, experiments were performed at 37°C in serum free Dulbecco's minimum essential medium containing 0.2% essentially fatty acid-free bovine serum albumin plus the indicated additions. Human LDL (d=1.019-1.063 g/ml) were isolated from plasma of healthy volunteers by sequential ultracentrifugation (Beckman L5-50, Palo Alto, CA). For acetylation, LDL were dialysed against 0.15 M NaCl, pH 7.4, diluted with an equal volume of saturated sodium acetate and treated with acetic anhydride. For [^125I]AcLDL, lipoproteins were labelled with sodium [^125I]iodide desalted by gel filtration on Sephadex G-25 eluted with phosphate buffered saline. Specific activity was 100-200 cpm/ng protein. Trichloroacetic acid non precipitable radioactivity was below 2% of total. All lipoproteins were sterile filtered. Cells were incubated for 24 hours with the tested compounds. After substitution of the medium with an identical one, incubation was continued for additional 24 hours. During this second incubation [^125I]AcLDL were added (50 µg/ml). Cholesterol esterification was measured after addition of [1-^14C] oleic acid ([…] sample) complexed with bovine serum albumin during the last 1 or 2 hours of incubation and subsequent determination of radioactivity associated with cellular cholesteryl esters. Where indicated cells were enriched with cholesterol by 24 hours incubation with 50 µg/ml of AcLDL before drug addition and experimental determinations.
Another set of experiments was performed to evaluate the effect of lercanidipine on cholesterol esterification in macrophages loaded with cholesterol ester before the addition of the compound, this condition being the same as in foam cells. Cells are loaded with cholesteryl esters by exposure for 24 hours to a medium containing 50 µg acetyl LDL.

The test system of another assay is LDL. Kind of assay: Cu++-mediated LDL oxidation, conjugated diene formation at 234 nm. The assay is classed as physicochemical, human. Further details: Lag time: unit: min. To be noted: for Lag time: 20 µM CuSO4, 25°C. As to the method: Lercanidipine antioxidant capacity was evaluated by incubating LDL With 20 µM Cu^++ in the presence or absence of different concentrations of the tested compound (0.01 µM - 50 µM). LDL oxidation Was followed by monitoring conjugated diene formation at 234 nm. The experimental conditions were as follows. LDL (d = 1.019-1.063) were isolated from human pooled plasma by sequential ultracentrifugation at 4°C and 40,000 rpm in a 50Ti rotor, using a L5-50 ultracentrifuge (Beckman, Palo Alto, CA). LDL were then dialyzed against 0.15 M NaCl containing 0.01% ethylenediaminetetraacetic acid pH 7.4, sterilized by filtration through a […] millipore filter and kept at 4°C under nitrogen in the dark until use (up to 3 weeks). Before use LDL were dialysed against ethylenediaminetetraacetic acid free phosphate buffered saline pH 7.4 on Sephadex G-25 columns (PD-10, Pharmacia Fine Chemicals, Uppsala, Sweden) and then LDL were filtered through a sterile 0.22 µM filter. LDL in phosphate buffered saline (50 µg lipoprotein protein/ml) were oxidized by incubation at 25°C with 20 µM CuSO4 for 3 hours. The lercanidipine solution was prepared as a 10^-2 M stock solution in methanol and added as ethanol solution (maximum 1% v/v) prior to addition of copper. The effect of lercanidipine on the oxidation of LDL was determined by continuous monitoring the conjugated diene formation by recording the increase in the absorbance at 234 nm at 5 min intervals during a three hours period, against a phosphate buffered saline blank, using a UV spectrophotometer (Beckman DU 640) with continuous reading with a automatic 6-cell changer. The lag time of the onset of oxidation was calculated as the intercept between the line of the maximum slope of the propagation phase and the baseline where absorbance was that at time 0.

Assay [4] concerns cell-mediated oxidation of LDL. Briefly: Time course of cell-mediated LDL oxidation. Type of assay: cell-based. The note with it: 30 µM, after 10 hours incubation; Figure 7. As to the method: The antioxidant capacity of lercanidipine and its enantiomers was investigated also on cell-mediated oxidation. This was evaluated by incubating ethylenediaminetetraacetic acid free LDL under sterile conditions With 5 µM Cu^++ (100 µg Apo B/ml) in the presence of J774 cells or alternatively with EAhy-926 cells. Oxidation was blocked after 22 hours incubation by adding butylated hydroxytoluene to the medium (final concentration 40 µM) dissolved in ethanol. The extent of lipid peroxidation was measured by determining the percentage inhibition of aldehydic breakdown products using the thiobarbituric acid assay [A.N. Hanna et al., Biochem. Pharmacol. 45, 753 (1993)]. Briefly, to 0.250 ml of the incubated samples, 0.750 ml of trichloroacetic acid ([…]) was added followed by 0.750 ml of thiobarbituric acid (0.67% w/v). The samples were heated at 100°C for 20 min, followed by cooling and centrifugation. Malondialdehyde equivalents were calculated using 1,1,3,3-tetramethoxy-propane as standard.
In the above experiments of cell-mediated oxidation the effects of lercanidipine were investigated after 22 hours incubation. […]

A further assay relates to renal hypertensive dogs. Briefly: Blood pressure in renal hypertensive dogs, oral administration. Type of assay: in vivo, beagle dogs. To be noted: for ED25 (dose inducing 25% decrease in DBP at peak effect), 95% C.L.: renal hypertensive dogs, linear regression analysis. As for the experimental part:
The antihypertensive effects of oral assumption of lercanidipine and its enantiomers were tested in renal hypertensive dogs.
Male beagle dogs weighing 12-13 kg, aged 1-3 years (Nossan Allevamenti, Italy) were used. Chronic sustained hypertension was induced by bilateral renal artery constriction, according to the Goldblatt method "two-kidney, two clip hypertension". Under barbiturate anaesthesia (35 mg/kg iv.) during two different surgical interventions one month apart from each other, both renal arteries were clipped with original renal silver clips and narrowed by about 60-70 %. After two months from the last intervention, an experimental renal hypertension was produced and the animals were suitable for the implantation of a catheter. Under sodium pentobarbital anaesthesia (35 mg/kg iv.), in sterile conditions, the dogs were catheterized by inserting an indwelling cannula (PE 200 Clay Adams) into the ascending aorta through the right common carotid artery. The catheter was subcutaneously exteriorized at the back of the neck, filled with heparinized saline solution and daily flushed to prevent clotting. After a week to recover from surgery, the animals were connected to a HP 1290A pressure transducer connected to an HP 8805B carrier amplifier of a Hewlett Packard HP 7700 multichannel polygraph, in order to monitor the arterial blood pressure. Heart rate was manually computed from the pressure trace.
All animals were alternatively treated with placebo, lercanidipine and its (R)- and (S)-enantiomers. The drugs were administered by the oral route with a straight round aseptic tip catheter (Pores Serlat - France). The drugs were suspended in aqueous 0.5% Methocel A4C plus Antifoam M10 (10%). The administered volume was 1 ml/kg. The suspending medicine was used as placebo. During experimental performance, the arterial blood pressure was continuously recorded 30 minutes before (Basal Values) and up to 8 hours after drug administration.
The ED25 values (dose inducing 25% decrease in DBP at peak effect) were evaluated by linear regression analysis and are summarized in Table 4.

The subject of assay [5] is mouse peritoneal macrophages. Kind of assay: Cholesterol esterification induced by AcLDL in macrophages. The assay is classed as cell-based. The note with it: comparison of lercanidipine and enantiomers; Figure 3. As for the experimental part: Cholesterol esterification induced by AcLDL in mouse peritoneal macrophages was investigated as follows. Mouse peritoneal macrophages were obtained by peritoneal lavage from mice (Balb/c Charles River, Calco, Italy) three days after intraperitoneal injection of thioglycolate. Cells (2-3x10^6) were plated in 35 mm wells with Dulbecco's minimum essential medium containing 10% fetal bovine serum. After 3 hours, the dishes were washed to eliminate unattached cells and maintained in Dulbecco's minimum essential medium plus 10% fetal bovine serum for 24 hours before use. After cell plating, experiments were performed at 37°C in serum free Dulbecco's minimum essential medium containing 0.2% essentially fatty acid-free bovine serum albumin plus the indicated additions. Human LDL (d=1.019-1.063 g/ml) were isolated from plasma of healthy volunteers by sequential ultracentrifugation (Beckman L5-50, Palo Alto, CA). […] Trichloroacetic acid non precipitable radioactivity was below 2% of total. […] Cholesterol esterification was measured after addition of [1-^14C] oleic acid ([…] sample) complexed with bovine serum albumin during the last 1 or 2 hours of incubation and subsequent determination of radioactivity associated with cellular cholesteryl esters. […]

Molecules are shown by their SMILES. Where two headings read alike, the source gives them in different places.

With `COC(=O)C1=C(C)NC(C)=C(C(=O)OC(C)(C)CN(C)CCC(c2ccccc2)c2ccccc2)C1c1cccc([N+](=O)[O-])c1` (racemic) [Lercanidipine, methyl 1,1,N-trimethyl-N-(3,3-diphenylpropyl)-2-aminoethyl 1,4-dihydro-2,6-dimethyl--4-(3-nitrophenyl)-pyridine-3,5-dicarboxylate], the IC50 was 31.2 µM in assay [1] (Myocytes from SD Rat); 14.1 µM in assay [1] (Myocytes from SHR Rat); 16.4 µM in assay [1] (Myocytes from WK Rat); 25.3 µM in assay [2]; approximately 7 µM in assay [3] (Mus musculus, Macrophage, cells loaded 24 hours with 50 µg acetyl LDL). In assay [3] (maximum, cells loaded 24 hours with 50 µg acetyl LDL), the “inhibition of cholesterol esterification” value is “up to 70%”. The “effect on the lag-phase of LDL oxidation” value in the assay with LDL (10 µM) is “doubled the lag-phase of LDL oxidation”. Also, the “potency on LDL oxidation compared with lacidipine” value with LDL ("in these assays" (LDL oxidation)) was “one order of magnitude higher than that of lacidipine”. Moreover, the Lag time is 45.1 ± 3.7 in the assay on LDL (Lercanidipine 0.5 µM); 49.8 ± 4.7 in the assay with LDL (Lercanidipine 1.0 µM); 53.6 ± 3.3 in the assay with LDL (Lercanidipine 2.5 µM, P < 0.05); 73.2 ± 4.8 with LDL (Lercanidipine 5.0 µM, P < 0.01); 112.7 ± 5.2 with LDL (Lercanidipine 10.0 µM, P < 0.01). For the same molecule, in assay [4], the “inhibition of lipid oxidation” value is on record as “very high inhibition of lipid oxidation”. Also, the “effect on arterial blood pressure” value in the assay on renal hypertensive dogs is given as “dose-related decrease in arterial blood pressure”.

Consider `COC(=O)C1=C(C)NC(C)=C(C(=O)OC(C)(C)CN(C)CCC(c2ccccc2)c2ccccc2)[C@@H]1c1cccc([N+](=O)[O-])c1` [(R)-Lercanidipine, (R)-(-)-methyl 1,1-N-triethyl-N-(3,3-diphenylpropyl)-2-aminoethyl 1,4-dihydro--2,6-dimethyl-4-(3-nitrophenyl)-pyridine-3,5-dicarboxylate], for which the “relative activity on cholesterol esterification induced by AcLDL” value in assay [5] is listed as “most active compound”. In addition, the “relative potency on cholesterol esterification” value in assay [3] is “slightly more potent than the racemate”. The “ED25 (dose inducing 25% decrease in DBP at peak effect), 95% C.L.” value in the assay with renal hypertensive dogs is given as > > 30 mg/kg.

As for `COC(=O)C1=C(C)NC(C)=C(C(=O)OC(C)(C)CN(C)CCC(c2ccccc2)c2ccccc2)[C@H]1c1cccc([N+](=O)[O-])c1` [(S)-Lercanidipine, (S)-(+)-methyl 1,1-N-trimethyl-N-(3,3-diphenylpropyl)-2-aminoethyl 1,4-dihydro--2,6-dimethyl-4-(3-nitrophenyl)-pyridine-3,5-dicarboxylate], in assay [3], the “relative potency on cholesterol esterification” value was “least potent among the compounds tested”. Moreover, in the assay with renal hypertensive dogs, the “antihypertensive efficacy compared with the racemate” value is on record as “two fold more efficacious than the racemate”; the “effect on arterial blood pressure” value was “dose-related decrease in arterial blood pressure”; the “ED25 (dose inducing 25% decrease in DBP at peak effect), 95% C.L.” value is 0.4 (0.3 ö 0.7) mg/kg.

`CCOC(=O)C1=C(C)NC(C)=C(C(=O)OCC)C1c1ccccc1/C=C/C(=O)OC(C)(C)C` [LA, Lacidipine, reference compound]: the IC50 in assay [1] (Myocytes from SD Rat) was 23.6 µM.

Take `COC(=O)C1=C(C)NC(C)=C(C(=O)OCCN(C)Cc2ccccc2)C1c1cccc([N+](=O)[O-])c1` (stereo not drawn) [NI, Nicardipine, reference compound]: the IC50 in assay [1] (Myocytes from SD Rat) stood at 38.8 µM.

These data come from patent EP0839036B1, “USE OF 1,4-DIHYDROPYRIDINE DERIVATIVES IN THE PREVENTION AND THERAPY OF ATHEROSCLEROTIC DEGRADATION OF ARTERIAL WALLS” (RECORDATI S.A. CHEMICAL and PHARMACEUTICAL COMPANY, priority 1995, dated 1997).
